Patent publication US20240335462A1, “SULFUR/PHOSPHORUS-CONTAINING ARYL COMPOUND AND APPLICATION THEREOF” (MEDSHINE DISCOVERY INC., priority 2021, published 2024)
pIC50: −log10 of the molar value.

Experiments:
[1] = target: TYK2 JH2 pseudokinase (Homo sapiens, UniProt P29597); assay: Inhibitory activity on TYK2 JH2 pseudokinase (TR-FRET); type: binding; conditions: 60 min room temperature, read-out: Kinase half maximal inhibitory concentration IC50 TYK2 JH2
Description: In this experiment, the inhibitory effect of compounds on TYK2 JH2 pseudokinase was tested using the method of time-resolved fluorescence resonance energy transfer (TR-FRET). In the experiment, TYK2 JH2 or JAK1 JH2 pseudokinase can simultaneously bind to fluorescently labeled Tracer and Tb antibody to form a “sandwich structure”. Tb antibody, functioning as a fluorescent donor, produces fluorescence at a wavelength of 495 nm under the excitation of light at a specific wavelength. Tracer, functioning as a fluorescent acceptor, can receive fluorescence at a wavelength of 495 nm and thus produce fluorescence at a wavelength of 520 nm, i.e., a time-resolved fluorescence resonance energy transfer (TR-FRET) signal, only when it is within the “sandwich structure”, i.e., when it is sufficiently close to Tb antibody. When the compound is added to compete with Tracer for binding to the pseudokinase, the binding of Tracer decreases, leading to a weakened TR-FRET signal. The inhibitory activity of the compound binding to the pseudokinase can be reflected by the ratio of signal values at 520 nm/495 nm.
The working solution consists of the following components: HEPES (pH 7.5) at a final concentration of 20 mM; MgCl2 at a final concentration of 10 mM; Brij-35 at a final concentration of 0.015%; DTT at a final concentration of 2 mM; and BSA at a final concentration of 50 μg/mL.
• a) The compound was dissolved in DMSO to achieve a storage concentration of 10 mM. • b) Various concentrations of the compound, 200 times the final concentration, were prepared in a compound dilution plate and transferred to an Echo plate. • c) The Echo instrument was used to transfer 150 nL of the compound from the Echo plate to a 384-well experimental plate. • d) 5 μL of TYK2 JH2 kinase, at three times the final concentration, was added to the 384-well experimental plate. • e) 5 μL of Tb, at three times the final concentration, was added to the 384-well experimental plate. • f) 5 μL of Tracer, at three times the final concentration, was added to the 384-well experimental plate. • g) The plate was centrifuged for 30 seconds and then incubated at room temperature for 60 minutes. • h) The fluorescence signal values at 520 nm/495 nm were measured using an Envision plate reader (PerkinElmer).
Data analysis was performed using the XL-Fit software to determine the IC50 of the compounds.

[2] = system: JAK2/2 signaling pathway (GM-CSF/pSTAT5); assay: GM-CSF-stimulated pSTAT5 in human PBMC (flow cytometry); type: cell-based; conditions: CD33-positive cells
Description: (§1) The purpose of this experiment was to detect the inhibitory effect of the compounds on cytokine-activated JAK-STAT signaling pathways in human peripheral blood mononuclear cells (PBMC).
(§2) • a) PBMCs frozen in liquid nitrogen were thawed in a 37° C. water bath, and culture medium was added. The mixture was then centrifuged at 320 g for 3 minutes. • b) Cells were resuspended in culture medium, counted, and the cell concentration was adjusted to 5×10^5 cells/mL with culture medium. Subsequently, the cell suspension was inoculated into […] 96-well round-bottom plates, with 200 μL per well. The plates were incubated at 37° C. with 5% CO2 for 90 minutes. • c) Different concentrations of the test compound (starting at 2 μM, 5-fold serial dilution, a total of 8 concentrations) were added, followed by incubation at 37° C. with 5% CO2 for 30 minutes. • d) IL-6 (final concentration at 20 ng/mL) was added to the first round-bottom plate and incubated at 37° C. with 5% CO2 for 15 minutes. • e) IFNα (final concentration at 1000 U/mL) was added to the second round-bottom plate and incubated at 37° C. with 5% CO2 for 15 minutes. • f) IL-2 (final concentration at 4 ng/mL) was added to the third round-bottom plate and incubated at 37° C. with 5% CO2 for 15 minutes. • g) GM-CSF (final concentration at […]) was added to the fourth round-bottom plate and incubated at 37° C. with 5% CO2 for 15 minutes. • h) Cells were centrifuged at 320 g for 3 minutes, and each well was washed once with 200 μL of staining solution. • i) 50 μL of staining solution containing human CD33 antibody was added to each well of the GM-CSF-stimulated culture plate, and 50 μL of staining solution containing CD4 antibody was added to the remaining three culture plates. The staining was performed at 4° C. for 30 minutes. The cells were washed twice with the staining solution. • j) 100 μL of fixation buffer was added to each well, and the cells were fixed at 4° C. for 15 minutes. The cells were washed once with the staining solution. • k) 100 μL of permeabilization buffer was added to each well, and the cells were permeabilized at 4° C. for 20 minutes. The cells were washed twice with the staining solution. • l) 50 μL of staining solution containing human pSTAT1 antibody was added to each well of the IL-6 and IFN-α-stimulated culture plates, and 50 μL of staining solution containing human pSTAT5 antibody was added to each well of the IL-2 and GM-CSF-stimulated culture plates. The staining was performed at room temperature for 15 minutes. The cells were washed twice with the staining solution. • m) The cells were resuspended in 150 μL of staining solution. • n) The fluorescence intensity of pSTAT1 (stimulated by IL-6 and IFN-α) or pSTAT5 (stimulated by IL-2) in CD4-positive cells was detected using flow cytometer. The fluorescence intensity of pSTAT5 (stimulated by GM-CSF) in CD33-positive cells was also detected.
(§3) Data analysis was performed using Flowjo software to determine the IC50 of the compounds.

[3] = system: JAK1/3 signaling pathway (IL-2/pSTAT5); assay: IL-2-stimulated pSTAT5 in human PBMC (flow cytometry); type: cell-based; conditions: CD4-positive cells
Description: as §1, §2, §3

Sequence of TYK2 JH2 pseudokinase (P29597 589-875 limits assumed): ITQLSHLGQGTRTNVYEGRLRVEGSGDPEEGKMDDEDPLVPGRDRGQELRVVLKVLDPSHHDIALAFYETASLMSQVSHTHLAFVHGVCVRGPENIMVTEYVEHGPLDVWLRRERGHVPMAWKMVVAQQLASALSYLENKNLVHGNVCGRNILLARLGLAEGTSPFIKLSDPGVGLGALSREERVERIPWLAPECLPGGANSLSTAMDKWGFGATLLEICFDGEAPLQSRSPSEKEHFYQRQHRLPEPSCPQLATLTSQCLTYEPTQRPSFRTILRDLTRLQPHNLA

SMILES	pIC50 [1]	pIC50 [2]	pIC50 [3]
CNC(=O)c1cnc(NC(=O)C2CC2)cc1Nc1cccc(-c2ccc(S(=O)(=O)C(C)C)cn2)c1OC.Cl [Hydrochloride of WX-020]	10.10	5.97	5.86
CNC(=O)c1cnc(NC(=O)C2CC2)cc1Nc1cccc(-c2ncc(S(=O)(=O)C(C)C)cn2)c1OC [WX-019]	10.05	5.84	5.80
CNC(=O)c1nnc(NC(=O)C2CC2)cc1Nc1cccc(-c2ncc(S(=N)(=O)C(C)C)cn2)c1OC (single isomer, unassigned) [WX-011B]	10.10	5.87	6.11
CNC(=O)c1nnc(NC(=O)C2CC2)cc1Nc1cccc(-c2ccc(P(=O)(C3CC3)C3CC3)cn2)c1OC [WX-021]	10.10	6.24	6.27
CNC(=O)c1nnc(NC(=O)C2CC2)cc1Nc1cccc(-c2ccc(S(=N)(=O)C(C)C)cn2)c1OC (single isomer, unassigned) [WX-012A]	10.10		
CNC(=O)c1nnc(NC(=O)C2CC2)cc1Nc1cccc(-c2ncc(S(=N)(=O)C(C)C)cn2)c1OC (single isomer, unassigned) [WX-011A]	10.00	5.78	5.88
CNC(=O)c1nnc(NC(=O)C2CC2)cc1Nc1cccc(-c2ccc(S(=N)(=O)C(C)C)cn2)c1OC (single isomer, unassigned) [WX-012B]	10.10		
